Results taken from patent publication US20080027079A1, “DIHYDROOROTATE DEHYDROGENASE INHIBITORS WITH SELECTIVE ANTI-MALARIAL ACTIVITY” (Board of Regents, University of Texas System, priority 2006, published 2008).
Where two headings read alike, the source gives them in different places.

Columns and labels:
[1] = target: T1, P. falciparum dihydroorotate dehydrogenase (pfDHODH) (Plasmodium falciparum, UniProt Q08210); assay: biochemical
T1 sequence (Q08210 24-569): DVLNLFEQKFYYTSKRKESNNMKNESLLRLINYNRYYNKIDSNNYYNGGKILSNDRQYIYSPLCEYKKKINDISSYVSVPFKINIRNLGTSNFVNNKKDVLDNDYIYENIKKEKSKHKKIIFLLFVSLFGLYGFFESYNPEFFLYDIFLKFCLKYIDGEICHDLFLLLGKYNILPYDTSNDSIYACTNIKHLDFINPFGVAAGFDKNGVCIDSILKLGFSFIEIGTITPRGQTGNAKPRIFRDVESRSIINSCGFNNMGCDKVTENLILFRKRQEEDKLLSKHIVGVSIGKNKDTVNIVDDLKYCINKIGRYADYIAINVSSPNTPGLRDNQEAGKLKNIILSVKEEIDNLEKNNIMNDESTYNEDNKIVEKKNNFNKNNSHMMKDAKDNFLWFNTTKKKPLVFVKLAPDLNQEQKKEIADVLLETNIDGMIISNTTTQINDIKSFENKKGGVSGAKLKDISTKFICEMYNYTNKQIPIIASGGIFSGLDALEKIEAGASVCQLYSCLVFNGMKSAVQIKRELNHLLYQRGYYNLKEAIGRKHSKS
Procedure: (§1) Measurement of enzyme inhibition. For studying inhibition of Plasmodium or human DHODH enzyme, two assays that are in routine use are described, for example, in Baldwin, et al. (2002) J Biol Chem., 277, 41827-41834, and Baldwin, et al. (2005) J. Biol. Chem., 280. 21847-21853. Briefly, these assays are as follows: 1) A […] assay thay that monitors 2,6-dichloroindophenol (DCIP) reduction at 600 nm (e=18.8 mM^−1 cm^−1) is performed as either a continuous assay where absorbance is recorded over time. The assay solution containing 100 mM HEPES, pH 8.0, 150 mM NaCl, 10% glycerol, 0.05% Triton X-[…] CoQ0 (coenzyme QD), […] L-dihydroorotate, and […] DCIP. Reactions are initiated by addition of enzyme to a final concentration of 5-50 nM and the temperature is maintained at 25° C with a circulating water bath. 2) A direct assay that follows the production of orotic acid by measuring the absorbance change at 287 nm (ε=4.3 mM^−1 cm^−1); DCIP is not included, but all other components of the assay are as described in method one. Inhibitor stocks are prepared in DMSO, and the inhibitors, such as GR-34, are added to these assays over a concentration range that encompasses their IC50 value and, the IC50's are determined from a plot of reaction rate in the presence of inhibitor/reaction rate in the absence of inhibitor (vi/vo) versus inhibitor concentration (Eq. 1). [formula]

P. falciparum 3D7 = assay: 3H-hypoxanthine uptake in P. falciparum-infected erythrocytes in culture (whole cell assay); assay type: cell-based; conditions: Plasmodium falciparum, Erythrocyte; 3D7 strain, in vitro
Procedure: In vitro evaluation of compound efficacy on the human malaria parasite, P. falciparum. To study inhibition of cell proliferation, ^3H-hypoxanthine uptake is measured in drug-treated, P. falciparum-infected erythrocytes grown in culture, pursuant to the methodology of Desjardins, et al. (1979) Antimicrobial Agents and Chemotherapy 16, 710-718, and Zhang and Rathod (2002) Science 296, 545-547.

[2] = target: human dihydroorotate dehydrogenase (hDHODH) (Homo sapiens, UniProt Q02127); assay: hDHODH enzyme inhibition (DCIP colorimetric or direct orotate assay); assay type: biochemical
Chain of human dihydroorotate dehydrogenase (hDHODH) (Q02127 whole entry): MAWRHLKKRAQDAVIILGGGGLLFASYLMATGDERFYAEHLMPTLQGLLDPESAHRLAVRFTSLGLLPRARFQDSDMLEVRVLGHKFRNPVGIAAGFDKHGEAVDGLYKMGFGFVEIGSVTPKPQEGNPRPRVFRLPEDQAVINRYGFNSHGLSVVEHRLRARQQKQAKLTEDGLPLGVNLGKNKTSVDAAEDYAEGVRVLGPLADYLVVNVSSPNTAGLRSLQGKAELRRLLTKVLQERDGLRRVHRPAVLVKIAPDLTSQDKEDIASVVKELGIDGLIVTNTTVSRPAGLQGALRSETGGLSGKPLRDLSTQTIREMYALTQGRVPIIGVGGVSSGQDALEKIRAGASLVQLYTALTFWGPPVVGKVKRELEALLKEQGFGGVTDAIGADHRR
Procedure: as §1

| SMILES | IC50 ([1]; read-out: IC50 pf DHODH) | EC50 (P. falciparum 3D7) | IC50 [2] | IC50 [1] |
| --- | --- | --- | --- | --- |
| Cc1nc2ncnn2c(Nc2ccc3ccccc3c2)c1C [5,6-dimethyl-N-(naphthalen-2-yl)-[1,2,4]triazolo[1,5-a]pyrimidin-7-amine] | 130 nM | – | – | – |
| CCc1cc(Nc2ccc3ccccc3c2)n2ncnc2n1 [5-ethyl-N-(naphthalen-2-yl)-[1,2,4]triazolo[1,5-a]pyrimidin-7-amine] | 280 nM | – | – | – |
| Cc1cc(Nc2cc3ccccc3cc2O)n2ncnc2n1 [5-methyl-N-(3-hydroxynaphthalen-2-yl)-[1,2,4]triazolo[1,5-a]pyrimidin-7-amine] | 2400 nM | 600 nM | – | – |
| Cc1cc(Nc2ccc3c(=O)ccoc3c2)n2ncnc2n1 [5-methyl-N-(4H-chromen-4-on-7-yl)-[1,2,4]triazolo[1,5-a]pyrimidin-7-amine] | 1900 nM | – | > 200 µM | – |
| Cc1cc(Nc2ccc3cc4ccccc4cc3c2)n2ncnc2n1 [5-methyl-N-(anthracen-2-yl)-[1,2,4]triazolo[1,5-a]pyrimidin-7-amine] | 23 nM | 120 nM | > 200 µM | – |
| Cc1cc(Nc2ccc3ccccc3c2)n2ncnc2n1 [5-methyl-N-(naphthalen-2-yl)-[1,2,4]triazolo[1,5-a]pyrimidin-7-amine] | – | 50 nM | > 600 µM | – |
| Cc1cc(Nc2ccc3ncccc3c2)n2ncnc2n1 [5-methyl-N-(quinolin-6-yl)-[1,2,4]triazolo[1,5-a]pyrimidin-7-amine] | – | – | > 200 µM | 1300 nM |

Continued, in another order:

| IC50 ([1]; read-out: IC50 pf DHODH) | EC50 (P. falciparum 3D7) | IC50 [2] | SMILES | IC50 [1] |
| --- | --- | --- | --- | --- |
| 2000 nM | – | > 200 µM | Cc1cc(Nc2cnc3ccccc3c2)n2ncnc2n1 [5-methyl-N-(quinolin-3-yl)-[1,2,4]triazolo[1,5-a]pyrimidin-7-amine] | – |
| 126 nM | – | > 200 µM | FC(F)(F)c1cc(Nc2ccc3ccccc3c2)n2ncnc2n1 [5-trifluoromethyl-N-(naphthalen-2-yl)-[1,2,4]triazolo[1,5-a]pyrimidin-7-amine] | – |
| 250 nM | – | – | Cc1nc2ncnn2c(Nc2ccc3cc4ccccc4cc3c2)c1C [N-(anthracen-2-yl)-5,6-dimethyl-[1,2,4]triazolo[1,5-a]pyrimidin-7-amine] | – |
| 240 nM | – | – | CCc1cc(Nc2ccc3cc4ccccc4cc3c2)n2ncnc2n1 [N-(anthracen-2-yl)-5-ethyl-[1,2,4]triazolo[1,5-a]pyrimidin-7-amine] | – |
